From publication PMC10488193, “Evaluation of the Chemical Stability, Membrane Permeability and Antiproliferative Activity of Cyclic Diarylheptanoids from European Hornbeam (Carpinus betulus L.)” (International Journal of Molecular Sciences, 2023)
“Also recorded” adds a separate entry of the source. Marks after values point to notes of the source that are not given here.

Legend:
[1] = Storage stability in solutions and hornbeam bark extracts (UHPLC-DAD); format: physicochemical
Description: For the analysis of the samples from the chemical stability as well as the PAMPA studies, sample concentrations were determined using our previously developed ultrahigh-performance liquid chromatography–diode array detection (UHPLC-DAD) method validated for linearity, precision and accuracy. Briefly, an ACQUITY UPLC H-Class PLUS System hyphenated with a quaternary solvent delivery pump (QSM), an auto-sampler manager (FTN), a column compartment (CM) and a photodiode array (PDA) detector (Waters Corporation) was employed. Stationary phase: Acquity BEH C18 column (100 × 2.1 mm i.d., 1.7 µm; Waters Corporation), column temperature: 30 °C. The mobile phase consisted of 0.3% acetic acid in water (eluent A) and acetonitrile (eluent B). The following gradient elution was applied at a flow rate of 0.3 mL/min: 0 min 12.0% B, 19.0 min 13.5% B, 25.5 min 75.0% B, 26.0 min 100.0% B, 28.0 min 100.0% B, 28.5 min 12.0% B.
We used the following equations to calculate the first-order reaction rate constant (k) and the half-life (t1/2) indicating the time required to reduce the concentration of diarylheptanoids by 50% [29]:ln (ct/c0) = −k × t(1) t1/2 = −ln 0.5 × k^−1(2) where ct is the concentration of the diarylheptanoids at time t, c0 is the initial concentration, k is the reaction rate constant, t is the treatment time.
The chemical stability of the isolated compounds in solutions was examined at a concentration of 50 µg/mL in methanol and water (in the latter case using methanol as co-solvent, final composition: water-methanol 90:10, v/v). Furthermore, the methanol and ethyl acetate extracts of C. betulus bark (concentration 4 mg/mL) were also studied in order to assess the effects of the accompanying substances. The storage stability studies were performed at a neutral pH value. All solutions were filtered through Phenex-RC 15 mm, 0.2 μm syringe filters (Gen-Lab Ltd., Budapest, Hungary). The samples were prepared in triplicate and stored protected from light at 22 ± 2.0 °C, 5 ± 1.5 °C and −15 ± 2.0 °C for 23 weeks. Quantities of the analytes of interest were quantified at weeks 12 and 23 using the abovementioned UHPLC-DAD method (see Section 3.4).
The effects of the temperature and the medium (i.e., solvent and accompanying substances) were analysed through one-way analysis of variance (ANOVA) followed by Tukey’s post hoc HSD test (p < 0.05). To establish the kinetic parameters t1/2 and k, Equations (1) and (2) were applied, respectively.

[2] = tested on: HepG2 (hepatocellular carcinoma); assay: In vitro antiproliferative activity, Alamar Blue assay; format: cell-based; details: Homo sapiens; HepG2, 24 h treatment, then three days culture, n = 2; read-out: IC50 ± SD
Description: (§1) For the experiments, the following human cell lines were used: A2058 (melanoma, derived from metastatic site: lymph node), HepG2 (hepatocellular carcinoma), U87 (glioblastoma), HT-29 (colorectal carcinoma) and HL-60 (acute promyelocytic leukaemia). Cell lines were generous gifts from Dr. […] (Department of Experimental Pharmacology, National Institute of Oncology, Budapest, Hungary). […] The cultures were maintained at 37 °C in a humidified atmosphere with 5% CO2. The cells were grown to confluency and then divided into 96-well tissue culture plates (Sarstedt, Nümbrecht, Germany) with an initial cell number of 5000 cells/well. Cells were incubated at 37 °C in a 5% CO2 humidified atmosphere overnight. Before the assay, 50 μL of the supernatant was removed and replaced with a 50 μL serum-free medium (SFM). […] The cells were treated for 24 h with the compounds and negative control cells (no compound control) were treated with SFM only (incubated at 37 °C). […] The percentage of cytostasis was calculated with the following equation: […] Data were evaluated with Excel (version: 365; Microsoft, Redmond, WA, USA) and the curves were defined using Microcal OriginPro (version: 2018; OriginLab, Northampton, MA, USA) software. In each case, two independent experiments were carried out with four parallel measurements and the mean IC50 values together with ±SD were represented. The Excel (version: 365) (Microsoft, Redmond, WA, USA) and Microcal OriginPro (version: 2018) (OriginLab, Northampton, MA, USA) softwares were used for data evaluation.

[3] = tested on: HL-60 (acute promyelocytic leukaemia); assay: as above; format: cell-based; details: Homo sapiens; HL-60, 24 h treatment, then three days culture, n = 2; read-out: IC50 ± SD
Description: as §1

U87 (glioblastoma) = assay: as above; format: cell-based; details: Homo sapiens; U87, 24 h treatment, then three days culture, n = 2; read-out: IC50 ± SD
Description: as §1

[4] = tested on: HT-29 (colorectal carcinoma); assay: as above; format: cell-based; details: Homo sapiens; HT-29, 24 h treatment, then three days culture, n = 2; read-out: IC50 ± SD
Description: as §1

[5] = tested on: A2058 (melanoma, derived from metastatic site: lymph node); assay: as above; format: cell-based; details: Homo sapiens; A2058, 24 h treatment, then three days culture, n = 2; read-out: IC50 ± SD
Description: as §1

concentration as compared to the initial value ([1]; 12 weeks, 5 °C, EE (ethyl acetate extract of bark)): 102.0 ± 1.7%
concentration as compared to the initial value ([1]; 12 weeks, 5 °C, EM (methanol extract of bark)): 105.5 ± 2.5%
concentration as compared to the initial value ([1]; 12 weeks, 5 °C, SA (aqueous solution)): 100.5 ± 0.7 ^ab %
concentration as compared to the initial value ([1]; 12 weeks, 5 °C, SM (methanol solution)): 100.1 ± 0.6 ^ab %
concentration as compared to the initial value ([1]; 12 weeks, 22 °C, EE (ethyl acetate extract of bark)): 106.3 ± 2.6 %
concentration as compared to the initial value ([1]; 12 weeks, 22 °C, EM (methanol extract of bark)): 120.9 ± 2.6 %
concentration as compared to the initial value ([1]; 12 weeks, 22 °C, SA (aqueous solution)): 100.8 ± 1.1 ^a %
concentration as compared to the initial value ([1]; 12 weeks, 22 °C, SM (methanol solution)): 100.1 ± 0.5 ^ab %
concentration as compared to the initial value ([1]; 12 weeks, −15 °C, EE (ethyl acetate extract of bark)): 103.5 ± 0.8%
concentration as compared to the initial value ([1]; 12 weeks, −15 °C, EM (methanol extract of bark)): 102.8 ± 3.3 %
concentration as compared to the initial value ([1]; 12 weeks, −15 °C, SA (aqueous solution)): 98.6 ± 1.3 ^b %
concentration as compared to the initial value ([1]; 12 weeks, −15 °C, SM (methanol solution)): 99.1 ± 0.7 ^ab %
concentration as compared to the initial value ([1]; 23 weeks, 5 °C, EE (ethyl acetate extract of bark)): 107.8 ± 2.6 %
concentration as compared to the initial value ([1]; 23 weeks, 5 °C, EM (methanol extract of bark)): 107.0 ± 4.1%
concentration as compared to the initial value ([1]; 23 weeks, 5 °C, SA (aqueous solution)): 100.0 ± 0.5 ^ab %
concentration as compared to the initial value ([1]; 23 weeks, 5 °C, SM (methanol solution)): 100.3 ± 0.5 ^ab %
concentration as compared to the initial value ([1]; 23 weeks, 22 °C, EE (ethyl acetate extract of bark)): 108.5 ± 2.7 %
concentration as compared to the initial value ([1]; 23 weeks, 22 °C, EM (methanol extract of bark)): 135.7 ± 9.7 %
concentration as compared to the initial value ([1]; 23 weeks, 22 °C, SA (aqueous solution)): 100.3 ± 0.6 ^ab %
concentration as compared to the initial value ([1]; 23 weeks, 22 °C, SM (methanol solution)): 100.2 ± 0.5 ^ab %
concentration as compared to the initial value ([1]; 23 weeks, −15 °C, EE (ethyl acetate extract of bark)): 108.0 ± 2.2 %
concentration as compared to the initial value ([1]; 23 weeks, −15 °C, EM (methanol extract of bark)): 103.6 ± 3.5%
concentration as compared to the initial value ([1]; 23 weeks, −15 °C, SA (aqueous solution)): 99.9 ± 1.2 ^ab %
concentration as compared to the initial value ([1]; 23 weeks, −15 °C, SM (methanol solution)): 99.8 ± 1.2 ^ab %
storage stability in methanol and aqueous solutions (in words) ([1]; SM and SA, −15, 5, 22 °C, weeks 12 and 23): stable; also recorded: good stability
IC50 [2]: > 100 µM
IC50 [3]: > 100 µM
IC50 (U87 (glioblastoma)): > 100 µM
IC50 [4]: > 100 µM
IC50 [5]: > 100 µM
SMILES: O=C1CCC(=O)C(O)Cc2ccc(O)c(c2)-c2cc(ccc2O)C1 (stereo not drawn) [Compound 4, 3,12,17-trihydroxytricyclo [12.3.1.1^2,6]nonadeca-1(18),2(19),3,5,14,16-hexaene-8,11-dione]
